In patent publication US4855445A, “Substituted-8-alkenyl-1,3,4,9-tetrahydropyrano[3,4-b]indole-1-acetic acids” (American Home Products Corporation, priority 1987, dated 1989):
Where a name gives a salt, the structure may show the parent alone.

Legend:
[1] = test system: rats; assay: Preventative Adjuvant Edema; assay type: in vivo, Male Sprague Dawley rats; details: p.o., dosed days 0, 1 and 2, edema volume day 3
Experimental: This test is a primary screen for anti-inflammatory drugs.
Male Sprague Dawley rats (180-200 g) are used. The animals have free access to water but food is withdrawn 18 hours before testing.
Drug Preparations and Adminstration:
Freund's complete adjuvant is prepared by suspending 5 mg of killed and dried Mycobacterium butyricum (Difco) in 1 mL mineral oil. The test compounds are dissolved, or suspended in 0.5% Tween 80 in distilled water according to their solubility. […]
The method is essentially that described by Wax et al, J. Pharmacol. Exp. Ther., 192, 166-171 (1975). Groups of rats are injected intradermally in the left hind paw with 0.1 mL of Freund's complete adjuvant. The test compound or vehicle is administered immediately before the adjuvant, 24 hours and 48 hours after the adjuvant (days 0, 1 and 2). The injected hind paw volume is measured before the injection of adjuvant and 24 hrs. after the last drug administration (day 3) by means of a plethysmometer (Buxco Electronics Inc.). The difference between the hind paw volume on day 0 and day 3 represents the edema volume. […]
The mean edema volume (expressed as mL±SEM) is calculated for each group and the percentage protection conferred by the drug is calculated: [formula] where c is the mean edema volume for the vehicle-treated (0.5% Tween 80 in distilled water) controls and t is the mean edema volume for the drug treated group.

[2] = test system: mice; assay: Drug Effects on Phenylbenzoquinone-induced Writhing in Mice; assay type: in vivo, Male Swiss albino mice; details: p.o., PBQ i.p. 60 minutes after dosing, writhes in 15 min
Experimental: A further test used to determine the utility of the compounds of the present invention is designated: Drug Effects on Phenylbenzoquinone-induced Writhing in Mice
The objective of this test is to determine the ability of test drugs to inhibit the nociceptive (pain) response of mice injected with a chemical irritant. This test is a primary screen for both peripheral and centrally acting analgesic drugs.
Male Swiss albino mice (15-25 g). The animals are fasted for 18 hours prior to use but have free access to water.
Drug Preparation and Administration:
Drugs are dissolved or suspended according to their solubility in 0.5% Tween 80 in distilled water. They are administered by gastric gavage in a volume of 5 mL/kg. […]
A modification of the method of Siegmund et al, Proc. Soc. Exp. Biol. Med., 95, 729-731 (1957) is used. Groups of 5 mice are dosed with the test compound or vehicle control. […] The number of writhing or abdominal squirming movements made by each mouse during the following 15 min. period is counted. The experiment is repeated with another group of 5 mice and the mean numbr of writhes per mouse for a group of 10 mice is calculated.
Drug treated and vehicle-treated control groups are compared and the percentage protection conferred by the drug is calculated: [formula] where c=mean number of writhes in the control group where t=mean number of writhes in the test drug group

| Structure (SMILES) | Preventative Adjuvant Edema, percent inhibition ([1]; 10 mg/kg) | Phenylquinone Writhing in Mice, percent inhibition ([2]; 10 mg/kg) | Preventative Adjuvant Edema, percent inhibition ([1]; 25 mg/kg) | Phenylquinone Writhing in Mice, percent inhibition ([2]; 200 mg/kg) |
| --- | --- | --- | --- | --- |
| C/C=C\c1c(F)ccc2c3c([nH]c12)C(CC)(CC(=O)O)OCC3 (stereo not shown) [Example 1, (Z)-1-Ethyl-7-fluoro-1,3,4,9-tetrahydro-8-(1-propenyl)pyrano[3,4-b]indole-1-acetic Acid, 1,2-Ethanediamine Salt] | 69% | 32% | – | – |
| C/C=C\c1cccc2c3c([nH]c12)C(CC)(CC(=O)O)OCC3 (stereo not shown) [Example 2, (Z)-1-Ethyl-8-(1-propenyl)-1,3,4,9-tetrahydropyrano[3,4-b]indole-1-acetic Acid] | – | – | 73% | 11% |
